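Where inhibition never reached the appropriate level, the endpoint shown equals the highest concentration tested. Otherwise, values were interpolated linearly from a five-concentration, 48-hour dose response in 96-well plates. The concentration for 50% growth inhibition is given as GI50.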 The source made the active and inactive calls. Rule as the data show it: active = GI50 up to about 1.1 µM and inactive = higher.
Columns and labels:
Test in all cases: DTP human tumour cell line panel, 48 h
KM12 = test system: KM12
SK-MEL-28 = test system: SK-MEL-28
SW-620 = test system: SW-620
ACHN = test system: ACHN
OVCAR-4 = test system: OVCAR-4
HCC 2998 = test system: HCC 2998
CCRF-CEM = test system: CCRF-CEM
SN12C = test system: SN12C
NCI-H522 = test system: NCI-H522
NCI-H460 = test system: NCI-H460
786-0 = test system: 786-0
RPMI-8226 = test system: RPMI-8226
A549 = test system: A549
OVCAR-5 = test system: OVCAR-5
SR = test system: SR
M14 = test system: M14
UACC-62 = test system: UACC-62
RXF 393 = test system: RXF 393
BT-549 = test system: BT-549
SK-MEL-2 = test system: SK-MEL-2
IGROV-1 = test system: IGROV-1
UO-31 = test system: UO-31
COLO 205 = test system: COLO 205
Malme-3M = test system: Malme-3M
TK-10 = test system: TK-10
T47D = test system: T47D
PC-3 = test system: PC-3
SNB-19 = test system: SNB-19
U-251 = test system: U-251
HL-60 = test system: HL-60
NCI-H226 = test system: NCI-H226
NCI-H23 = test system: NCI-H23
DU-145 = test system: DU-145
CAKI-1 = test system: CAKI-1
MDA-N = test system: MDA-N
SNB-75 = test system: SNB-75
Hs-578T = test system: Hs-578T
UACC-257 = test system: UACC-257
SK-MEL-5 = test system: SK-MEL-5
HCT-116 = test system: HCT-116
SF-539 = test system: SF-539
MDA-MB-435 = test system: MDA-MB-435
LOX IMVI = test system: LOX IMVI
HOP-92 = test system: HOP-92
SF-295 = test system: SF-295
OVCAR-3 = test system: OVCAR-3
MDA-MB-231 = test system: MDA-MB-231
EKVX = test system: EKVX
SK-OV-3 = test system: SK-OV-3
SF-268 = test system: SF-268
HCT-15 = test system: HCT-15
MOLT-4 = test system: MOLT-4
HOP-62 = test system: HOP-62
NCI/ADR-RES = test system: NCI/ADR-RES
HT-29 = test system: HT-29
MCF7 = test system: MCF7
OVCAR-8 = test system: OVCAR-8
K562 = test system: K562
A498 = test system: A498

In the case of `CC(C)(C)OC(=O)c1ccc(NCC2=C(Br)C(=O)C=CC2=O)cc1`, the GI50 (KM12) is reported as 33.3 µM (inactive), the GI50 (SK-MEL-28) is reported as 19.6 µM (inactive) and the GI50 (SW-620) is reported as 16.4 µM (inactive). For the same molecule, the GI50 (ACHN) was 17.9 µM (inactive), the GI50 (OVCAR-4) was 14.1 µM (inactive) and the GI50 (HCC 2998) was 21.5 µM (inactive). The GI50 (CCRF-CEM) was 2.42 µM (inactive), the GI50 (SN12C) was 18.7 µM (inactive) and the GI50 (NCI-H522) was 4.47 µM (inactive). The GI50 (NCI-H460) was 36.3 µM (inactive), the GI50 (786-0) was 17.5 µM (inactive) and the GI50 (RPMI-8226) was 10.3 µM (inactive). The GI50 (A549) was 57.8 µM (inactive), the GI50 (OVCAR-5) was 23.1 µM (inactive) and the GI50 (SR) was 11.7 µM (inactive). The GI50 (M14) was 27.5 µM (inactive), the GI50 (UACC-62) was 16.6 µM (inactive) and the GI50 (RXF 393) was 13.7 µM (inactive). The GI50 (BT-549) was 11.4 µM (inactive), the GI50 (SK-MEL-2) was 28.6 µM (inactive) and the GI50 (IGROV-1) was 24.2 µM (inactive). For the same molecule, the GI50 (UO-31) was 14 µM (inactive), the GI50 (COLO 205) was 18.2 µM (inactive) and the GI50 (Malme-3M) was 14.9 µM (inactive). For the same molecule, the GI50 (TK-10) was 22.1 µM (inactive), the GI50 (T47D) was 17.5 µM (inactive) and the GI50 (PC-3) was 27.4 µM (inactive). For the same molecule, the GI50 (SNB-19) was > 54.7 µM (inactive), the GI50 (U-251) was 22.3 µM (inactive) and the GI50 (HL-60) was 1.79 µM (inactive). For the same molecule, the GI50 (NCI-H226) was 22.1 µM (inactive), the GI50 (NCI-H23) was 19.6 µM (inactive) and the GI50 (DU-145) was 35.7 µM (inactive). For the same molecule, the GI50 (CAKI-1) was 11.6 µM (inactive), the GI50 (MDA-N) was 20 µM (inactive) and the GI50 (SNB-75) was 39.5 µM (inactive). For the same molecule, the GI50 (Hs-578T) was 19.1 µM (inactive), the GI50 (UACC-257) was 21.7 µM (inactive) and the GI50 (SK-MEL-5) was 15.9 µM (inactive). For the same molecule, the GI50 (HCT-116) was 17.7 µM (inactive), the GI50 (SF-539) was 21.5 µM (inactive) and the GI50 (MDA-MB-435) was 18.8 µM (inactive). For the same molecule, the GI50 (LOX IMVI) was 14.7 µM (inactive), the GI50 (HOP-92) was 14.5 µM (inactive) and the GI50 (SF-295) was 65.9 µM (inactive). For the same molecule, the GI50 (OVCAR-3) was 10.6 µM (inactive), the GI50 (MDA-MB-231) was 19.1 µM (inactive) and the GI50 (EKVX) was 19.7 µM (inactive). For the same molecule, the GI50 (SK-OV-3) was > 64.9 µM (inactive), the GI50 (SF-268) was 19.6 µM (inactive) and the GI50 (HCT-15) was 15.6 µM. For the same molecule, the GI50 (MOLT-4) was 1.42 µM (inactive), the GI50 (HOP-62) was 37 µM (inactive) and the GI50 (NCI/ADR-RES) was 20.1 µM (inactive). The GI50 (HT-29) was 17.5 µM (inactive), the GI50 (MCF7) was 19.3 µM (inactive) and the GI50 (OVCAR-8) was 16.5 µM (inactive). For the same molecule, the GI50 (K562) was 11.7 µM (inactive).

With `O=C1NC2=NOC(=O)NC2=NO1` the GI50 (KM12) was > 200 µM (inactive), the GI50 (SK-MEL-28) was > 200 µM (inactive) and the GI50 (SW-620) was > 200 µM (inactive). For the same molecule, the GI50 (ACHN) was > 200 µM (inactive), the GI50 (OVCAR-4) was > 200 µM (inactive) and the GI50 (HCC 2998) was > 200 µM (inactive). For the same molecule, the GI50 (CCRF-CEM) was > 200 µM (inactive), the GI50 (SN12C) was > 200 µM (inactive) and the GI50 (A498) was > 200 µM (inactive). The GI50 (NCI-H522) was > 200 µM (inactive), the GI50 (NCI-H460) was > 200 µM (inactive) and the GI50 (786-0) was > 200 µM (inactive). The GI50 (RPMI-8226) was > 200 µM (inactive), the GI50 (A549) was > 200 µM (inactive) and the GI50 (OVCAR-5) was > 200 µM (inactive). The GI50 (M14) was > 200 µM (inactive), the GI50 (UACC-62) was > 200 µM (inactive) and the GI50 (RXF 393) was > 200 µM (inactive). For the same molecule, the GI50 (BT-549) was > 200 µM (inactive), the GI50 (SK-MEL-2) was > 200 µM (inactive) and the GI50 (IGROV-1) was > 200 µM (inactive). For the same molecule, the GI50 (UO-31) was > 200 µM (inactive), the GI50 (COLO 205) was > 200 µM (inactive) and the GI50 (Malme-3M) was > 200 µM (inactive). For the same molecule, the GI50 (TK-10) was > 200 µM (inactive), the GI50 (T47D) was > 200 µM (inactive) and the GI50 (PC-3) was > 200 µM (inactive). For the same molecule, the GI50 (SNB-19) was > 200 µM (inactive), the GI50 (U-251) was > 200 µM (inactive) and the GI50 (HL-60) was > 200 µM (inactive). For the same molecule, the GI50 (NCI-H226) was > 200 µM (inactive), the GI50 (NCI-H23) was > 200 µM (inactive) and the GI50 (DU-145) was > 200 µM (inactive). For the same molecule, the GI50 (CAKI-1) was > 200 µM (inactive), the GI50 (MDA-N) was > 200 µM (inactive) and the GI50 (SNB-75) was > 200 µM (inactive). The GI50 (Hs-578T) was > 200 µM (inactive), the GI50 (UACC-257) was > 200 µM (inactive) and the GI50 (SK-MEL-5) was > 200 µM (inactive). The GI50 (HCT-116) was > 200 µM (inactive), the GI50 (SF-539) was > 200 µM (inactive) and the GI50 (MDA-MB-435) was > 200 µM (inactive). The GI50 (LOX IMVI) was > 200 µM (inactive), the GI50 (HOP-92) was > 200 µM (inactive) and the GI50 (SF-295) was > 200 µM (inactive). For the same molecule, the GI50 (OVCAR-3) was > 200 µM (inactive), the GI50 (MDA-MB-231) was > 200 µM (inactive) and the GI50 (EKVX) was > 200 µM (inactive). The GI50 (SK-OV-3) was > 200 µM (inactive), the GI50 (SF-268) was > 200 µM (inactive) and the GI50 (HCT-15) was over 200 µM. The GI50 (MOLT-4) was > 200 µM (inactive), the GI50 (HOP-62) was > 200 µM (inactive) and the GI50 (NCI/ADR-RES) was > 200 µM (inactive). For the same molecule, the GI50 (HT-29) was > 200 µM (inactive), the GI50 (MCF7) was > 200 µM (inactive) and the GI50 (OVCAR-8) was > 200 µM (inactive). The GI50 (K562) was > 200 µM (inactive).
